Patent US20260209175A1, “PHARMACEUTICALLY ACCEPTABLE 5-METHOXY-N,N-DIMETHYL[…] AND COMPOSITIONS THEREOF” (priority 2022, published 2026)

Key:
Type in all cases: physicochemical
[1] = Solubility assessments in four different media; settings: 50 mg per vial; for Observation: 0.5 ml media at 37° C.
Protocol: Solubility assessments of 5-MeO-DMT oxalate, hydrobromide fumarate and benzoate were performed in four different media: […]

[2] = Dissolution rate in simulated nasal fluid (UV-fiber optic dissolution apparatus); settings: 5 mg in 5 mL simulated nasal fluid, 37° C., 150 RPM
Protocol: The dissolution rate was determined using a method comprising the use of a UV-fiber optic-based dissolution apparatus (one such suitable device is the Rainbow® Dynamic Dissolution Monitor by Pion Inc) and simulated nasal fluid. The simulated nasal fluid comprises 7.45 g/L NaCl, 1.29 g/L KCl, 0.32 g/L CaCl2×2H2O and deionised water.
The dissolution apparatus was set up with a 2 mm probe to measure the dissolution rate. 5 mg of the salt form was transferred into 5 mL of simulated nasal fluid, heated to a constant temperature of 37° C. and stirred at 150 RPM using a crossed stirrer bar. Measurements were taken at 3 s intervals for 130 intervals followed by 60 measurements taken at 10 s intervals for a total time of 16 minutes and 30 s. Detection of dissolution is by UV absorbance.

[3] = Polymorphism screen of benzoate salt (thermal cycling, evaporations, antisolvent additions, cooling), XRPD
Protocol: To render the amorphous and thus remove seeds of the supplied pattern 1 the supplied material was lyophilised in an attempt to render it amorphous. To 2.396 g of the supplied benzoate salt lot 800674000 dioxane (55 ml) and water (5 ml) was added. The mixture was agitated gently and warmed to aid dissolution.
Twenty five of the lyophilised samples were treated with solvent and thermally cycled between ambient and 40° C. with four hours spent under each condition. After three days and solids were isolated by centrifuge filtration and analysed by XRPD.
Twelve samples of the lyophilised material were treated with a minimal volume (ca 0.5 ml) of warm solvent, syringe filtered through a 0.22 micrometre filter and added to a clean HPLC vial and allowed to evaporate at RT. The solvents used and XRPD results following evaporation are detailed in the Table below:
For antisolvent additions thirteen samples of the lyophilised material were dissolved in a small amount of hot solvent (^~0.5 ml). […] A large excess of antisolvent was then added, the vials sealed. After storage at RT overnight, and samples where no solid had been produced were first cooled to 4° C. for ^~24 hrs, and again if no solid was produced, they were cooled to −18° C. Any solids were isolated by centrifuge filtration and analysed by XRPD.
For the cooling experiments twelve samples of the lyophilised material were dissolved in a small amount of hot solvent (^~0.5 ml) and syringe filtered through a 0.22 μm filter into a clean HPLC vial. Samples were allowed to cool to RT, and if no solid was produced to 4° C. and then to −18° C. Solids were isolated by centrifuge filtration and analysed by XRPD.

COc1ccc2[nH]cc(CCN(C)C)c2c1.O=C(O)c1ccccc1 [benzoate salt, 5-MeO-DMT benzoate]
pH after addition of 0.5 ml media at 37° C. ([1]; SNF): 6.77 | Observation ([1]; SNF): Clear solution | pH after addition of 0.5 ml media at 37° C. ([1]; pH 1.2 buffer): 5.28 | Observation ([1]; pH 1.2 buffer): Clear solution | pH after addition of 0.5 ml media at 37° C. ([1]; pH 4.5 buffer): 5.22 | Observation ([1]; pH 4.5 buffer): Clear solution | pH after addition of 0.5 ml media at 37° C. ([1]; pH 6.8 buffer): 6.82 | Observation ([1]; pH 6.8 buffer): Clear solution | dissolution rate [2]: almost instantaneous | XRPD Results ([3]; antisolvent addition, solvent DMF, anti solvent PhMe, Cooled −18 C., DJP2202-012-07): No solid | XRPD Results ([3]; antisolvent addition, solvent EtOH, anti solvent Heptane, Some solid at RT, DJP2202-012-04): Pattern 1 | XRPD Results ([3]; antisolvent addition, solvent EtOH, anti solvent TBME, Cooled −18 C., DJP2202-012-03): No solid | XRPD Results ([3]; antisolvent addition, solvent IPAC, anti solvent TBME, Cooled −18 C., DJP2202-012-08): No solid | XRPD Results ([3]; antisolvent addition, solvent MEK, anti solvent Heptane, Some solid at RT, DJP2202-012-10): Pattern 2 | XRPD Results ([3]; antisolvent addition, solvent MEK, anti solvent TBME, Cooled −18 C., DJP2202-012-09): No solid | XRPD Results ([3]; antisolvent addition, solvent MeCN, anti solvent PhMe, Some solid at RT, DJP2202-012-12): Pattern 4 | XRPD Results ([3]; antisolvent addition, solvent MeCN, anti solvent TBME, Cooled −18 C., DJP2202-012-11): No solid | XRPD Results ([3]; antisolvent addition, solvent MeOH, anti solvent TBME, Cooled −18 C., DJP2202-012-02): No solid | XRPD Results ([3]; antisolvent addition, solvent MeOH/water Aw 0.2, anti solvent MeOH, Cooled −18 C., DJP2202-012-01): No solid | XRPD Results ([3]; antisolvent addition, solvent THF, anti solvent TBME, Cooled −18 C., DJP2202-012-05): No solid | XRPD Results ([3]; antisolvent addition, solvent dioxane, anti solvent TBME, Cooled −18 C., DJP2202-012-06): No solid | XRPD Results ([3]; cooling experiment, EtOH, Solid at RT, DJP2202-013-05): Pattern 4 | XRPD Results ([3]; cooling experiment, IPA, Solid at RT, DJP2202-013-06): Pattern 4 | XRPD Results ([3]; cooling experiment, IPAC, Solid at RT, DJP2202-013-10): Pattern 4 | XRPD Results ([3]; cooling experiment, MEK, Solid at RT, DJP2202-013-11): Pattern 2 | XRPD Results ([3]; cooling experiment, MeCN, Solid at RT, DJP2202-013-12): Pattern 4 | XRPD Results ([3]; cooling experiment, MeOH/water Aw 0.2, Cooled −18 C., DJP2202-013-01): Pattern 4 | XRPD Results ([3]; cooling experiment, MeOH/water Aw 0.6, Cooled −18 C., DJP2202-013-02): no solids | XRPD Results ([3]; cooling experiment, MeOH, Cooled −18 C., DJP2202-013-04): no solids | XRPD Results ([3]; cooling experiment, THF, Solid at RT, DJP2202-013-07): Pattern 4 | XRPD Results ([3]; cooling experiment, Water, Cooled −18 C., DJP2202-013-03): Pattern 4 | XRPD Results ([3]; cooling experiment, chlorobenzene, Solid at RT, DJP2202-013-09): mix #4 #2 | XRPD Results ([3]; cooling experiment, dioxane, Solid at RT, DJP2202-013-08): Pattern 3 | XRPD Result ([3]; evaporation at RT of lyophilised material from 1-PrOH, DJP2202-010-02): Oil | XRPD Result ([3]; evaporation at RT of lyophilised material from EtOH, DJP2202-010-05): Oil | XRPD Result ([3]; evaporation at RT of lyophilised material from IPA, DJP2202-010-06): Pattern 4 | XRPD Result ([3]; evaporation at RT of lyophilised material from IPAC, DJP2202-010-10): Pattern 2 | XRPD Result ([3]; evaporation at RT of lyophilised material from MEK, DJP2202-010-11): Pattern 4 | XRPD Result ([3]; evaporation at RT of lyophilised material from MIBK, DJP2202-010-04): Oil | XRPD Result ([3]; evaporation at RT of lyophilised material from MeCN, DJP2202-010-12): Pattern 4 | XRPD Result ([3]; evaporation at RT of lyophilised material from THF, DJP2202-010-07): Pattern 4 | XRPD Result ([3]; evaporation at RT of lyophilised material from chlorobenzene, DJP2202-010-09): Pattern 4 | XRPD Result ([3]; evaporation at RT of lyophilised material from dioxane, DJP2202-010-08): Pattern 4 | XRPD Result ([3]; thermal cycle ambient/40° C., 3 days, 1,4-Dioxane 200 μl, isolated after thermal cycle, DJP2202-006-01): Pattern 3 | XRPD Result ([3]; thermal cycle ambient/40° C., 3 days, 1-Propanol 200 μl, isolated after thermal cycle, DJP2202-006-02): Pattern 4 | XRPD Result ([3]; thermal cycle ambient/40° C., 3 days, 2-Butanol 200 μl, isolated after thermal cycle, DJP2202-006-03): Pattern 4 | XRPD Result ([3]; thermal cycle ambient/40° C., 3 days, 2-Me-1-PrOH 200 μl, isolated after thermal cycle, DJP2202-006-21): Pattern 4 | XRPD Result ([3]; thermal cycle ambient/40° C., 3 days, 2-Methyltetrahydrofuran 200 μl, isolated after thermal cycle, DJP2202-006-05): Pattern 4 | XRPD Result ([3]; thermal cycle ambient/40° C., 3 days, 2-Propanol 200 μl, isolated after thermal cycle, DJP2202-006-06): Pattern 4 | XRPD Result ([3]; thermal cycle ambient/40° C., 3 days, Acetone 200 μl, isolated after thermal cycle, DJP2202-006-07): Pattern 4 | XRPD Result ([3]; thermal cycle ambient/40° C., 3 days, Acetonitrile 200 μl, isolated after thermal cycle, DJP2202-006-08): Pattern 4 | XRPD Result ([3]; thermal cycle ambient/40° C., 3 days, Anisole 200 μl, isolated after thermal cycle, DJP2202-006-09): Pattern 4 | XRPD Result ([3]; thermal cycle ambient/40° C., 3 days, Chlorobenzene 200 μl, isolated after thermal cycle, DJP2202-006-10): Pattern 4 + | XRPD Result ([3]; thermal cycle ambient/40° C., 3 days, Ethanol 150 μl, isolated after thermal cycle, DJP2202-006-11): Pattern 4 | XRPD Result ([3]; thermal cycle ambient/40° C., 3 days, Ethyl acetate 200 μl, isolated after thermal cycle, DJP2202-006-12): Pattern 4 | XRPD Result ([3]; thermal cycle ambient/40° C., 3 days, Formamide 150 μl, isolated after thermal cycle, DJP2202-006-17): Pattern 4 | XRPD Result ([3]; thermal cycle ambient/40° C., 3 days, Isopropyl acetate 200 μl, isolated after thermal cycle, DJP2202-006-13): Pattern 4 | XRPD Result ([3]; thermal cycle ambient/40° C., 3 days, MeOH/water 360/640 Calc Aw 0.821, 200 μl, clear solution, evaporated to solid, DJP2202-006-25): Pattern 1 | XRPD Result ([3]; thermal cycle ambient/40° C., 3 days, MeOH/water 693/307 Calc Aw 0.599, 200 μl, clear solution, evaporated to solid, DJP2202-006-24): Pattern 1 | XRPD Result ([3]; thermal cycle ambient/40° C., 3 days, Methanol 200 μl, clear solution, evaporated to solid, DJP2202-006-14): Pattern 1 | XRPD Result ([3]; thermal cycle ambient/40° C., 3 days, Methylethyl ketone 200 μl, isolated after thermal cycle, DJP2202-006-16): Pattern 4 | XRPD Result ([3]; thermal cycle ambient/40° C., 3 days, Propyl acetate 200 μl, isolated after thermal cycle, DJP2202-006-15): Pattern 4 | XRPD Result ([3]; thermal cycle ambient/40° C., 3 days, Tetrahydrofuran 200 μl, isolated after thermal cycle, DJP2202-006-22): Pattern 4 | XRPD Result ([3]; thermal cycle ambient/40° C., 3 days, iso-Propyl acetate 200 μl, isolated after thermal cycle, DJP2202-006-20): Pattern 4
